# Source: US20110015246A2, “LOFEXIDINE ENANTIOMERS FOR USE AS A TREATMENT FOR CNS DISEASE AND PATHOLOGIES AND ITS CHIRAL SYNTHESIS” (Agean LLC, priority 2006, published 2011)
# What was measured:
# [1] = chills, vomiting, sweating, stomach cramps, diarrhea, muscle pain, runny nose and eyes; cited from earlier work
# [2] = system: α2-adrenergic binding sites in rat brain membranes; assay: binding to α2-adrenergic binding sites in rat brain membranes
# [3] = system: α1-adrenergic receptors in rat brain membranes; assay: binding to α1-adrenergic receptors in rat brain membranes
# [4] = effect on blood pressure and bradycardiac activity (peripheral side effects); type: in vivo
# pithed normotensive rats = assay: pressor effects after intravenous administration in pithed normotensive rats; type: in vivo, rat
# [5] = system: pentobarbitone anesthetized normotensive rats; assay: mean arterial pressure and heart rate after intravenous administration in pentobarbitone anesthetized normotensive rats; type: in vivo, rat
# pithed rat = assay: electrical stimulation-evoked heart rate and diastolic pressure increase in the pithed rat; type: in vivo
# [6] = system: brain adrenergic receptors; assay: potency at brain adrenergic receptors involved in opioid detoxification; type: binding
smiles,measurement,setting,value
"CC(Oc1c(Cl)cccc1Cl)C1=NCCN1 (racemic) [Lofexidine, 2-[1-(2,6-dichlorophenoxy)ethyl]-4,5-dihydro-1H-Imidazole]",reducing the symptoms associated with heroin withdrawal,[1],effective
"CC(Oc1c(Cl)cccc1Cl)C1=NCCN1 (single isomer, unassigned; (+)) [(+)-lofexidine, 2-[1-(2,6-dichlorophenoxy)ethyl]-4,5-dihydro-1H-Imidazole]","potency at α2-adrenergic receptors, times less potent than (−)-lofexidine",[2]; (+) vs (−),nine
same,"potency at α1-adrenergic receptors, times less potent than (−)-lofexidine","[3]; rat brain membranes, (+) vs (−)",four
same,peripheral side effects on blood pressure,[4]; compared to (±)-lofexidine,considerably lower
same,bradycardiac activity,[4]; in vivo,practically no effect
same,effect on reducing blood pressure,[4]; in vivo,practically no effect
"CC(Oc1c(Cl)cccc1Cl)C1=NCCN1 (single isomer, unassigned; (-)) [(−)-lofexidine, 2-[1-(2,6-dichlorophenoxy)ethyl]-4,5-dihydro-1H-Imidazole]",affinity for α2-adrenergic binding sites relative to the (+)-enantiomer (times higher),[2]; (−) vs (+),about nine
same,affinity for α1-adrenergic receptors relative to the (+)-enantiomer (times greater),[3]; (−) vs (+),about four
same,"doses eliciting pressor effects, times lower than (+)-lofexidine",pithed normotensive rats,20 times
same,effectiveness in decreasing heart rate relative to (+)-lofexidine,[5],twenty
same,effectiveness in decreasing mean arterial pressure relative to (+)-lofexidine,[5],twenty
same,potency in decreasing the increased heart rate evoked by electrical stimulation relative to (+)-lofexidine,pithed rat,thirty
same,impairment of electrical stimulation-induced increase in diastolic pressure,pithed rat; compared with (+)-lofexidine,more effectively unpaired
same,potency at brain adrenergic receptors compared with (+)-lofexidine,[6],more potent
